Test results taken from US7709645B2, “Pyrrolo-pyridine kinase modulators” (SGX Pharmaceuticals, Inc., priority 2004, dated 2010).

target: T1, Autophosphorylated AurA kinase (Homo sapiens, UniProt O14965); assay: AurA Bioassay (luminescence-based enzyme assay, Kinase-Glo); assay type: biochemical; settings: 10 μM ATP
T1 construct: made in house; host or cells: Sf9 insect cells
T1 sequence (O14965 1-403): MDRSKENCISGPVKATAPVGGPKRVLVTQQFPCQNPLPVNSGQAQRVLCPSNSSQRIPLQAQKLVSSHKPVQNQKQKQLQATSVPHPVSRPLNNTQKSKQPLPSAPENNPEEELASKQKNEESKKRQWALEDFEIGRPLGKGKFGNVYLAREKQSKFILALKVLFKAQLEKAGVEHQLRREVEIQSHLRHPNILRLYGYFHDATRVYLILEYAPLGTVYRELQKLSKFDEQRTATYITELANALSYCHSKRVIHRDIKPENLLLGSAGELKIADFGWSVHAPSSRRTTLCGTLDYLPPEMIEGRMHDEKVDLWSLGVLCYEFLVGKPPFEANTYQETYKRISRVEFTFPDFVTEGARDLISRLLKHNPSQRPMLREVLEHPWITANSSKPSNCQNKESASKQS
Description: In addition to the c-Abl PK/LDH coupled assay (above), homogeneous luminescence-based inhibitor screening assays were developed for c-Abl, MET, AurA, and PDK1 kinases (among others). Each of these assays made use of an ATP depletion assay (Kinase-Glo™, Promega Corporation, Madison, Wis.) to quantitate kinase activity. The Kinase-Glo™ format uses a thermostable luciferase to generate luminescent signal from ATP remaining in solution following the kinase reaction. The luminescent signal is inversely correlated with the amount of kinase activity.
Materials: Kemptide peptide substrate=LRRASLG (SEQ ID NO:2) (Biopeptide, San Diego, Calif.), ATP (Sigma Cat#A-3377, FW=551), HEPES buffer, pH 7.5, 10% Brij 35 (Calbiochem Cat#203728), MgCl2, Staurosporine (Streptomyces sp. Sigma Cat#85660-1MG), white Costar 384-well flat bottom plate (VWR Cat#29444-088), Autophosphorylated AurA kinase (see below), Kinase-Glo™ (Promega Cat#V6712).
Stock Solutions: 10 mM Kemptide peptide (7.72 mg/ml in water), stored at −20° C.; 100 mM HEPES buffer+0.015% Brij 35, pH 7.5 (5 ml 1M HEPES stock+75 μL 10% Brij 35+45 ml miliQH2O); 10 mM ATP (5.51 mg/ml in dH2O) stored at −20° C. (diluted 50 μl into total of 10 ml miliQH2O daily=50 μM ATP working stock); 100 mM MgCl2; […] Staurosporine, 2× Kinase-Glo™ reagent (made fresh or stored at −20° C.).
AurA Autophosphorylation Reaction: ATP and MgCl2 were added to 1-5 mg/ml AurA at final concentrations of 10 mM and 100 mM, respectively. The autophosphorylation reaction was incubated at 21° C. for 2-3 h. The reaction was stopped by the addition of EDTA to a final concentration of 50 mM, and samples were flash frozen with liquid N2 and stored at −80° C.
Standard Assay Setup for 384-well format (20 μl kinase reaction, 40 μl detection reaction): 10 mM MgCl2; 0.2 mM Kemptide peptide; […] test compound (in DMSO); 0.3 μg/ml Autophosphorylated AurA kinase; 10 μM ATP; 100 mM HEPES+0.015% Brij buffer. Positive controls contained DMSO with no test compound. Negative controls contained 5 μM staurosporine. The kinase reactions were initiated at time t=0 by the addition of ATP. Kinase reactions were incubated at 21° C. for 45 min, then 20 μl of Kinase-Glo™ reagent were added to each well to quench the kinase reaction and initiate the luminescence reaction. After a 20 min incubation at 21° C., the luminescence was detected in a plate-reading luminometer.
The Sf9 insect cell pellets (˜18 g) produced from 6 L of cultured cells expressing human Aurora-2 were resuspended in 50 mM Na Phosphate pH 8.0, 500 mM NaCl, 10% glycerol, 0.2% n-octyl-β-D-glucopyranoside (BOG) and 3 mM β-Mercaptoethanol (BME). One tablet of Roche Complete, EDTA-free protease inhibitor cocktail (Cat# 1873580) and 85 units Benzonase (Novagen Cat#70746-3)) were added per 1 L of original culture. Pellets were resuspended in approximately 50 ml per 1 L of original culture and were then sonicated on ice with two 30-45 sec bursts (100% duty cycle). Debris was removed by centrifugation and the supernatant was passed through a 0.8 μm syringe filter before being loaded onto a 5 ml Ni^2+ HiTrap column (Pharmacia). The column was washed with 6 column volumes of 50 mM Na Phosphate pH 8.0, 500 mM NaCl, 10% glycerol, 3 mM BME. The protein was eluted using a linear gradient of the same buffer containing 500 mM Imidazole. The eluant (24 ml) was cleaved overnight at 4° C. in a buffer containing 50 mM Na Phosphate pH 8.0, 500 mM NaCl, 10% glycerol, 3 mM BME and 10,000 units of TEV (Invitrogen Cat# 10127-017). […]

For COCCOc1ccc(-c2cnc3[nH]cc(-c4ccccc4OC)c3c2)cc1OCCOC [AE68], which IC50 is on record?
The IC50 was 500 to 5000 nM.

With CNC(=O)c1cncc(-c2cnc3[nH]cc(-c4ccccc4OC)c3c2)c1 [AE1] as the molecule, how does the IC50 read?
The IC50 was 500 to 5000 nM.

For COc1ccccc1-c1c[nH]c2ncc(-c3ccc(S(N)(=O)=O)s3)cc12 [AE11], which IC50 is on record?
The IC50 was 500 to 5000 nM.

COc1ccccc1-c1c[nH]c2ncc(-c3cccc(S(C)(=O)=O)c3)cc12 [AE13] was tested. Which IC50 did it give?
The IC50 was 500 to 5000 nM.

COc1ccccc1-c1c[nH]c2ncc(-c3ccc[nH]3)cc12 [AE67] was tested. Which IC50 did it give?
The IC50 was 500 to 5000 nM.

tested on: Ba/F3-T315I cells; assay: Ba/F3-T315I XTT Assay (cell survival); assay type: cell-based; settings: 72 hours
Experimental: MV4-11 and THP cells were maintained in Iscove's Modified Dulbecco's Medium supplemented with 10% fetal bovine serum (FBS) and penicillin/streptomycin, Ba/F3 cells were maintained in RPMI 1640 supplemented with 10% FBS, penicillin/streptomycin and 5 ng/ml recombinant mouse IL-3.
Compounds were tested in the following assays in duplicate.
96-well XTT assay: Cells (e.g. BaF3 315I, M351I, or E255K cells) were grown in growth media containing various concentrations of compounds (duplicates) on a 96-well plate for 72 hours at 37° C. The starting cell number was 5000-8000 cells per well and volume was 120 μl. At the end of the 72-hour incubation, 40 μl of XTT labeling mixture (50:1 solution of sodium 3′-[1-(phenylamino-carbonyl)-3,4-tetrazolium]-bis(4-methoxy-6-nitro) benzene sulfonic acid hydrate and Electron-coupling reagent: PMS (N-methyl dibenzopyrazine methyl sulfate) were added to each well of the plate. After an additional 2-6 hours of incubation at 37° C., the absorbance reading at 405 nm with background correction at 650 nm was measured with a spectrophotometer.

With COc1ccccc1-c1c[nH]c2ncc(-c3ccc4[nH]cc(CC(=O)O)c4c3)cc12 [AE10] as the molecule, how does the IC50 read?
Its IC50 is under 100 nM.
